Laboratory results published in US8993585B2, “Cyclic amine substituted pyrimidinediamines as PKC inhibitors” (Rigel Pharmaceuticals, Inc., priority 2007, dated 2015).
pIC50: −log10 of the molar value.

system: Human primary T cells; assay: IL-2 ELISA, Human Primary T Cell, Anti-CD3+CD28+ (Example 3); type: cell-based; details: Homo sapiens, T-cell, 24 h, anti-CD3+CD28 stimulation
Description: Human primary T cell isolation and culture: Human primary T cells were prepared as follows. […] The cells at the serum:ficoll interface were recovered and washed twice with 5 volumes of PBS. […] The primary T-cells were then washed twice with PBS to remove the IL-2.
Primary T cell stimulation and IL2 ELISA: Human primary T cells (100,000 cells per well) were pre-incubated with or without test compound in Yssel's medium for 1 hr at 37° C. Cells were then stimulated by transferring them to round-bottom 96-well plates pre-coated with 1 ug/ml αCD3 and 5 μg/ml αCD28. For counter assay, cells were instead stimulated by adding 8× stock solutions of PMA and ionomycin in Yssels (for final concentrations of 0.5 ng/ml PMA and 0.1 uM ionomycin, both from Calbiochem).

pIC50 | SMILES
5.73 | CN1C(C)(C)CC(Nc2nc(Nc3ccc4c(c3)CC(=O)NO4)ncc2F)CC1(C)C [II-3]
7.53 | COc1cc(Nc2ncc(F)c(NC3CC(C)(C)N(C)C(C)(C)C3)n2)cc(-n2nnnc2C)c1 [Compound I-358]
5.82 | COc1cc(Nc2ncc(F)c(NC3CC(C)(C)NC(C)(C)C3)n2)cc(OCCN2CCOCC2)c1 [Compound I-432]
4.91 | Cc1nc2ccc(Nc3ncc(F)c(NC4CC(C)(C)N(C)C(C)(C)C4)n3)cc2[nH]1 [II-9]
6.22 | COc1cc(O)cc(Nc2ncc(F)c(NC3CC(C)(C)N(C)C(C)(C)C3)n2)c1 [Compound I-436]
6.41 | CCn1c(=O)oc2cc(Nc3ncc(F)c(NC4CC(C)(C)N(C)C(C)(C)C4)n3)ccc21 [II-46]
5.27 | COc1ccc(Nc2ncc(F)c(NC3CC(C)(C)N(C)C(C)(C)C3)n2)cn1 [Compound I-345]
5.88 | CCn1c(=O)oc2ccc(Nc3ncc(F)c(NC4CC(C)(C)N(C)C(C)(C)C4)n3)cc21 [II-173]
6.06 | CN1C(C)(C)CC(Nc2nc(Nc3cc4c(cc3F)OC(F)(F)C(F)(F)O4)ncc2F)CC1(C)C [II-123]

Further lines, the compound ahead of its results:

SMILES | pIC50
CCN(CC)C1CCC(Nc2nc(Nc3ccc(N4CCN(S(C)(=O)=O)CC4)c(Cl)c3)ncc2F)CC1 (stereo not drawn) [IV-4, N2-[3-Chloro-4-(4-methylsulfonylpiperazino)]phenyl-N4-(4-diethylamino)cyclohexyl-5-fluoro-2,4-pyrimidinediamine] | 5.15
CN1C(C)(C)CC(Nc2nc(Nc3ccc4c(c3)OC3(CCCC3)O4)ncc2F)CC1(C)C [II-113] | 5.66
CN1C(C)(C)CC(Nc2nc(Nc3ccc4c(c3)OC(C)(C)C(=O)N4CCCF)ncc2F)CC1(C)C [II-78] | 6.43
CN1C(C)(C)CC(N(Cc2ccc(-c3ccccc3C#N)cc2)c2nc(Nc3ccc4c(c3)OCCO4)ncc2F)CC1(C)C [II-91] | 5.41
CN1C(=O)CCc2cc(Nc3ncc(F)c(NC4CC(C)(C)N(C)C(C)(C)C4)n3)ccc21 [II-4] | 5.76
CC1(C)CC(Nc2nc(Nc3ccc4c(c3)OC3(CCCCC3)O4)ncc2F)CC(C)(C)N1 [II-121] | 5.74
CN1C(C)(C)CC(Nc2nc(Nc3ccc4c(c3)oc(=O)n4CCN3CCOCC3)ncc2C#N)CC1(C)C [II-169] | 5.46
CC1(C)CC(Nc2nc(Nc3ccc4c(c3)OC(C)(C)O4)ncc2F)CC(C)(C)N1 [II-102] | 5.28
CC(C)N1C(=O)C(C)(C)Oc2cc(Nc3ncc(C#N)c(NC4CC(C)(C)N(C)C(C)(C)C4)n3)ccc21 [II-74] | 6.46
CN1C(C)(C)CC(N(Cc2ccc3ccccc3c2)c2nc(Nc3ccc4c(c3)OCCO4)ncc2F)CC1(C)C [II-87] | 5.42
CN(C)c1ccc(-c2ccc(Nc3ncc(F)c(NC4CC(C)(C)N(C)C(C)(C)C4)n3)cc2C#N)cn1 [Compound I-426] | 6.38
CN1C(C)(C)CC(Nc2nc(Nc3cc4c(cc3Cl)OCCO4)ncc2F)CC1(C)C [II-116] | 5.83
CN1C(C)(C)CC(Nc2nc(N[C@@H]3CCc4ccccc43)ncc2F)CC1(C)C [II-84] | 4.76

same assay, conditions: anti-CD3+CD28 stimulation, 24 hours

pIC50 | SMILES
5.97 | CN1CCN(c2ccc(Nc3ncc(C(N)=O)c(NC4CC(C)(C)N(C)C(C)(C)C4)n3)cc2Cl)CC1 [Compound I-98]
5.91 | COc1cc(Nc2ncc(F)c(NC3CC(C)(C)N(C)C(C)(C)C3)n2)cc(OC)c1OC [Compound I-19]
6.21 | CN1C(C)(C)CC(Nc2nc(Nc3cc(F)c(F)c(F)c3)ncc2F)CC1(C)C [Compound I-347]
6.17 | COc1cc(Nc2ncc(C(N)=O)c(NC3CC(C)(C)N(C)C(C)(C)C3)n2)cc(-n2cnnn2)c1 [Compound I-390]
5.84 | CN1C(C)(C)CC(Nc2nc(Nc3ccc(C(F)(F)F)c(C(F)(F)F)c3)ncc2F)CC1(C)C [Compound I-410]
5.80 | CN1C(C)(C)CC(Nc2nc(Nc3ccc(N4CCCCC4)c(C(F)(F)F)c3)ncc2F)CC1(C)C [Compound I-233]
6.54 | CN1C(C)(C)CC(Nc2nc(Nc3ccc(N4CCN(S(C)(=O)=O)CC4)c(C(F)(F)F)c3)ncc2C(F)(F)F)CC1(C)C [Compound I-88]
5.96 | COc1ccc(Nc2ncc(F)c(NC3CC(C)(C)N(C)C(C)(C)C3)n2)cc1OC [Compound I-130]
7.03 | COc1cc(Nc2ncc(C(F)(F)F)c(NC3CC(C)(C)N(C)C(C)(C)C3)n2)cc(-n2nnnc2C)c1 [Compound I-370]
5.78 | CC(C)OC(=O)Nc1ccc(Nc2ncc(F)c(NC3CC(C)(C)N(C)C(C)(C)C3)n2)cc1 [Compound I-137]
5.90 | CN1C(C)(C)CC(Nc2nc(Nc3cc(C(F)(F)F)c(Br)c(C(F)(F)F)c3)ncc2F)CC1(C)C [Compound I-117]
5.99 | CN1C(C)(C)CC(Nc2nc(Nc3ccc(OC(F)(F)F)c(Cl)c3)ncc2F)CC1(C)C [Compound I-334]
6.21 | CN1C(C)(C)CC(Nc2nc(Nc3cccc(OC(F)(F)F)c3)ncc2Br)CC1(C)C [Compound I-275]
5.98 | CC(=O)Nc1ccc(Nc2ncc(F)c(NC3CC(C)(C)N(C)C(C)(C)C3)n2)cc1C(F)(F)F [Compound I-161]
5.74 | COc1cc(Nc2ncc(Br)c(NC3CC(C)(C)N(C)C(C)(C)C3)n2)cc(OC)c1OC [Compound I-276]
6.22 | CN1C(C)(C)CC(Nc2nc(Nc3ccc(C#N)c(C(F)(F)F)c3)ncc2F)CC1(C)C [Compound I-152]
6.00 | CN1C(C)(C)CC(Nc2nc(Nc3ccc(N4CCC(F)(F)CC4)c(F)c3)ncc2F)CC1(C)C [Compound I-51]
4.68 | CC(=O)N1C(C)(C)CC(Nc2nc(Nc3ccc(N4CCN(C)CC4)c(C(F)(F)F)c3)ncc2F)CC1(C)C [Compound I-219]
5.49 | COc1cc(Cl)c(Nc2ncc(F)c(NC3CC(C)(C)N(C)C(C)(C)C3)n2)cc1OC [Compound I-386]
6.17 | CN1C(C)(C)CC(Nc2nc(Nc3cccc(NS(C)(=O)=O)c3)ncc2F)CC1(C)C [Compound I-243]
6.32 | CN1C(C)(C)CC(Nc2nc(Nc3cc(OCC(F)(F)F)cc(OCC(F)(F)F)c3)ncc2C(N)=O)CC1(C)C [Compound I-406]
5.93 | COCCOc1cc(Nc2ncc(F)c(NC3CC(C)(C)N(C)C(C)(C)C3)n2)cc(OCCOC)c1 [Compound I-385]
5.49 | CCOC(=O)c1cnc(Nc2ccc(N3CCN(C)CC3)c(C(F)(F)F)c2)nc1NC1CC(C)(C)N(C)C(C)(C)C1 [Compound I-82]
5.28 | COc1cc(Nc2ncc(C)c(NC3CC(C)(C)N(C)C(C)(C)C3)n2)cc(OC)c1OC [Compound I-16]
5.02 | CN1C(C)(C)CC(Nc2nc(Nc3cc(O)cc(O)c3)ncc2F)CC1(C)C [Compound I-384]
5.94 | COc1ccc(Nc2ncc(F)c(NC3CC(C)(C)N(C)C(C)(C)C3)n2)cc1F [Compound I-127]

Continued, compound first:

SMILES | pIC50
CCN1CCN(c2ccc(Nc3ncc(C)c(NC4CC(C)(C)N(C)C(C)(C)C4)n3)cc2C)CC1 [Compound I-18] | 5.03
COc1cc(Nc2ncc(Cl)c(NC3CC(C)(C)N(C)C(C)(C)C3)n2)ccc1NC(=O)c1ccco1 [Compound I-352] | 5.97
CC1CC(c2ccc(Nc3ncc(F)c(NC4CC(C)(C)N(C)C(C)(C)C4)n3)cc2)CC(C)O1 (stereo not drawn) [Compound I-222] | 5.82
CN1C(C)(C)CC(Nc2nc(Nc3ccc(-n4nnnc4-c4ccco4)cc3)ncc2F)CC1(C)C [Compound I-458] | 6.10
Cc1cnc(Nc2ccc(S(N)(=O)=O)cc2)nc1NC1CC(C)(C)N(C)C(C)(C)C1 [Compound I-13] | 5.11
Cc1nnnn1-c1cccc(Nc2ncc(F)c(NC3CC(C)(C)N(C)C(C)(C)C3)n2)c1 [Compound I-396] | 7.00
CCN1CCN(c2cc(Nc3ncc(F)c(NC4CC(C)(C)N(C)C(C)(C)C4)n3)ccc2Cl)CC1 [Compound I-41] | 5.58
CN1CCN(c2ccc(Nc3nccc(NC4CC(C)(C)N(C)C(C)(C)C4)n3)cc2C(F)(F)F)CC1 [Compound I-229] | 6.23
CN1C(C)(C)CC(Nc2nc(Nc3ccc(-c4cc5ccccc5s4)c(Cl)c3)ncc2F)CC1(C)C [Compound I-156] | 5.54
CN1CCN(C(=O)c2ccc(Nc3ncc(F)c(NC4CC(C)(C)N(C)C(C)(C)C4)n3)cc2Cl)CC1 [Compound I-44] | 5.70
CN1CCN(S(=O)(=O)c2ccc(Nc3ncc(F)c(NC4CC(C)(C)N(C)C(C)(C)C4)n3)cc2Cl)CC1 [Compound I-45] | 5.62
CSc1nnnn1-c1cccc(Nc2ncc(C(N)=O)c(NC3CC(C)(C)NC(C)(C)C3)n2)c1 [Compound I-457] | 5.78
Cc1cnc(Nc2ccc(N3CCN(C)CC3)c(Cl)c2)nc1NC1CC(C)(C)N(C)C(C)(C)C1 [Compound I-29] | 6.33
CN1C(C)(C)CC(Nc2nc(Nc3cccc(-n4cnnn4)c3)ncc2C#N)CC1(C)C [Compound I-405] | 6.62
COc1ccc(Nc2ncc(F)c(N(C)C3CC(C)(C)N(C)C(C)(C)C3)n2)cc1Cl [Compound I-58] | 5.70
CN1C(C)(C)CC(Nc2nc(Nc3ccc(S(=O)(=O)N4CCNCC4)c(Cl)c3)ncc2F)CC1(C)C [Compound I-46] | 4.84
CCCN1CCN(c2cc(Nc3ncc(F)c(NC4CC(C)(C)N(C)C(C)(C)C4)n3)ccc2Cl)CC1 [Compound I-56] | 5.62
COc1ccc(Nc2nccc(NC3CC(C)(C)N(C)C(C)(C)C3)n2)cc1Cl [Compound I-226] | 5.94
CCOC(=O)c1cnc(Nc2ccc(N3CCN(S(C)(=O)=O)CC3)c(Cl)c2)nc1NC1CC(C)(C)N(C)C(C)(C)C1 [Compound I-84] | 5.16
CN1C(C)(C)CC(Nc2nc(Nc3cccc(-c4cccnc4)c3)ncc2F)CC1(C)C [Compound I-107] | 6.13
CN1CCN(c2ccc(Nc3ncc(Cl)c(NC4CC(C)(C)N(C)C(C)(C)C4)n3)cc2Cl)CC1 [Compound I-36] | 7.08
